Assay results as given in US20170071235A1 (priority 2014, published 2017).

What was measured:
[1] = tested on: IL-1β secretion produced by PMA-differentiated macrophages; format: cell-based, human
[2] = tested on: TNF-α secretion produced by PMA-differentiated macrophages; format: cell-based, human
[3] = thiol group; cited from earlier work

Row | Structure (SMILES) | IL-1β response [1] | release of IL-1β [1] | effect on proliferation of THP-1 monocytes (THP-1 monocytes) | TNF-α secretion [2] | pKa [3]
1 | CC1=C[C@H]2O[C@@H]3[C@H](O)C[C@](C)([C@@]2(CO)[C@H](O)C1=O)[C@]31CO1 [DON, deoxynivalenol] | did not show an IL-1β response | increased the release of IL-1β | decreased the proliferation | increase in TNF-α | –
2 | C=C1[C@@H]2O[C@@H]3C=C(C)C(=O)[C@@H](O)[C@]3(CO)[C@@]1(C)C[C@H]2O [deepoxy-DON] | – | did not | did not | – | –
3 | OCCS [mercaptoethanol, 2-mercaptoethanol] | – | – | – | – | ~9.6
